Tested on: MHCC97H cells
Assay: Inhibitory activity on the proliferation of MHCC97H cells (CCK-8)
Assay type: cell-based
Settings: Homo sapiens, MHCC97H cell proliferation, 72 hours of incubation
Method: Biological Example 3. Assay of the Inhibitory Activity of Small Molecular Compounds on the Proliferation of MHCC97H Cells
The specific steps of the assay are as follows:
1. Dilution of compounds: a total of 9 concentrations were obtained using a 3-fold gradient dilution from the highest concentration of 5000 nM (the maximum final concentration of the drug used in this assay was 5000 nM, and the minimum final concentration was 0.76 nM).
2. MHCC97H cells were collected, then transferred to a 15 mL centrifuge tube, and centrifuged at 1000 rpm for 5 minutes.
3. The supernatant was discarded, and the complete medium was added and pipetted evenly, 10 μL of cell suspension was taken out and mixed evenly with 10 μL of 0.4% trypan blue, the counting was carried out with a cell counter, and the number and survival rate of cells were recorded;
4. The cell suspension was seeded into a 96-well plate at 5000 cells/80 μL per well;
5. 20 μL of the corresponding 5× compound solution diluted with the medium mentioned above was added to each well and mixed evenly;
6. After 72 hours of incubation, 10 μL of CCK-8 reagent was added to each well and incubated for another 2 hours (the reaction time can be adjusted according to the color depth);
7. The OD value was read at 450 nm on a multi-function plate reader.
8. Data processing: cell survival rate (%)=[(As−Ab)/(Ac−Ab)]*100%
As: OD value of assay well (medium containing cells, CCK-8, compound),
Ac: OD value of control well (medium containing cells, CCK-8),
Ab: OD value of blank well (CCK-8, medium without cell and compound),
The values were then imported into Graphpad Prism5 software for curve fitting, and IC50 was calculated.
Table 3 lists the assay results of the inhibitory activity of some compounds disclosed herein on the proliferation of the MHCC97H cell line.

Compound	IC50
CC1(C)CCN(CCCOc2cc3nccc(Oc4ccc(NC(=O)C5(C(=O)Nc6ccc(F)cc6)CC5)cc4F)c3c3c2OCCO3)CC1 [Example 29, N-(3-fluoro-4-((5-(3-(4,4-dimethylpiperidin-1-yl)propoxy)-2,3-dihydro-[1,4]dioxino[2,3-f]quinolin-10-yl)oxy)phenyl)-N-(4-fluorophenyl)cyclopropan-1,1-dicarboxamide]	< 50 nM
CC1(N)CCN(CCCOc2cc3nccc(Oc4ccc(NC(=O)C5(C(=O)Nc6ccc(F)cc6)CC5)cc4F)c3c3c2OCCO3)CC1 [Example 30, N-(3-fluoro-4-((5-(3-(4-amino-4-methylpiperidin-1-yl)propoxy)-2,3-dihydro-[1,4]dioxino[2,3-f]quinolin-10-yl)oxy)phenyl)-N-(4-fluorophenyl)cyclopropan-1,1-dicarboxamide]	< 500 nM
COCCOc1cc2nccc(Oc3ccc(NC(=O)C4(C(=O)Nc5ccc(F)cc5)CC4)cc3F)c2c2c1OCCO2 [Example 10, N-(3-fluoro-4-((5-(2-methoxyethoxy)-2,3-dihydro-[1,4]dioxino[2,3-f]quinolin-10-yl)oxy)phenyl)-N-(4-fluorophenyl)cyclopropan-1,1-dicarboxamide]	< 50 nM
CN1CCN(CCCOc2cc3nccc(Oc4ccc(NC(=O)C5(C(=O)Nc6ccc(F)cc6)CC5)cc4F)c3c3c2OCCO3)CC1 [Example 21, N-(4-((5-(3-(4-methylpiperazin-1-yl)propoxy)-2,3-dihydro-[1,4]dioxino[2,3-f]quinolin-10-yl)oxy)-3-fluorophenyl)-N-(4-fluorophenyl)cyclopropan-1,1-dicarboxamide]	< 50 nM
O=C(Nc1ccc(F)cc1)C1(C(=O)Nc2ccc(Oc3ccnc4cc(OCCCN5CCOCC5)c5c(c34)OCCO5)c(F)c2)CC1 [Example 5, N-(3-fluoro-4-((5-(3-morpholinopropoxy)-2,3-dihydro-[1,4]dioxino[2,3-f]quinolin-10-yl)oxy)phenyl)-N-(4-fluorophenyl)cyclopropan-1,1-dicarboxamide]	< 50 nM
CCOc1cc2nccc(Oc3ccc(NC(=O)C4(C(=O)Nc5ccc(F)cc5)CC4)cc3F)c2c2c1OCCO2 [Example 7, N-(4-((5-ethoxy-2,3-dihydro-[1,4]dioxino[2,3-f]quinolin-10-yl)oxy)-3-fluorophenyl)-N-(4-fluorophenyl)cyclopropan-1,1-dicarboxamide]	< 50 nM
COc1cc2nccc(Oc3ccc(NC(=O)C4(C(=O)Nc5ccc(F)cc5)CC4)c(F)c3)c2c2c1OCCO2 [Example 3, N-(2-fluoro-4-((5-methoxy-2,3-dihydro-[1,4]dioxino[2,3-f]quinolin-10-yl)oxy)phenyl)-N-(4-fluorophenyl)cyclopropan-1,1-dicarboxamide]	< 50 nM
O=C(Nc1ccc(F)cc1)C1(C(=O)Nc2ccc(Oc3ccnc4cc(OC5CCOC5)c5c(c34)OCCO5)c(F)c2)CC1 (centres unmarked) [Example 17, N-(3-fluoro-4-((5-((tetrahydrofuran-3-yl)oxy)-2,3-dihydro-[1,4]dioxino[2,3-f]quinolin-10-yl)oxy)phenyl)-N-(4-fluorophenyl)cyclopropan-1,1-dicarboxamide]	< 50 nM
CN(CCCOc1cc2nccc(Oc3ccc(NC(=O)C4(C(=O)Nc5ccc(F)cc5)CC4)cc3F)c2c2c1OCCO2)C1CCC1 [Example 23, N-(4-((5-(3-(cyclobutyl(methyl)amino)propoxy)-2,3-dihydro-[1,4]dioxino[2,3-f]quinolin-10-yl)oxy)-3-fluorophenyl)-N-(4-fluorophenyl)cyclopropan-1,1-dicarboxamide]	< 50 nM
O=C(Nc1ccc(F)cc1)C1(C(=O)Nc2ccc(Oc3ccnc4cc(OC5COC5)c5c(c34)OCCO5)c(F)c2)CC1 [Example 28, N-(3-fluoro-4-((5-(oxetan-3-yloxy)-2,3-dihydro-[1,4]dioxino[2,3-f]quinolin-10-yl)oxy)phenyl)-N-(4-fluorophenyl)cyclopropan-1,1-dicarboxamide]	< 50 nM
CN(C)CCCCCCOc1cc2nccc(Oc3ccc(NC(=O)C4(C(=O)Nc5ccc(F)cc5)CC4)cc3F)c2c2c1OCCO2 [Example 27, N-(4-((5-((6-(dimethylamino)hexyl)oxy)-2,3-dihydro-[1,4]dioxino[2,3-f]quinolin-10-yl)oxy)-3-fluorophenyl)-N-(4-fluorophenyl)cyclopropan-1,1-dicarboxamide]	< 50 nM
O=C(Nc1ccc(F)cc1)C1(C(=O)Nc2ccc(Oc3ccnc4cc(OCCCN5CCOCC5)c5c(c34)OCCO5)cc2)CC1 [Example 4, N-(4-fluorophenyl)-N-(4-((5-(3-morpholinopropoxy)-2,3-dihydro-[1,4]dioxino[2,3-f]quinolin-10-yl)oxy)phenyl)cyclopropan-1,1-dicarboxamide]	< 50 nM
O=C(Nc1ccc(F)cc1)C1(C(=O)Nc2ccc(Oc3ccnc4cc(OCCCN5CCS(=O)(=O)CC5)c5c(c34)OCCO5)c(F)c2)CC1 [Example 24, N-(4-((5-(3-(1,1-dioxothiomorpholin-4-yl)propoxy)-2,3-dihydro-[1,4]dioxino[2,3-f]quinolin-10-yl)oxy)-3-fluorophenyl)-N-(4-fluorophenyl)cyclopropan-1,1-dicarboxamide]	< 50 nM
COCCN(C)CCCOc1cc2nccc(Oc3ccc(NC(=O)C4(C(=O)Nc5ccc(F)cc5)CC4)cc3F)c2c2c1OCCO2 [Example 15, N-(3-fluoro-4-((5-(3-((2-methoxyethyl)(methyl)amino)propoxy)-2,3-dihydro-[1,4]dioxino [2,3-f]quinolin-10-yl)oxy)phenyl)-N-(4-fluorophenyl)cyclopropan-1,1-dicarboxamide]	< 50 nM
O=C(Nc1ccc(F)cc1)C1(C(=O)Nc2ccc(Oc3ccnc4cc(OCCO)c5c(c34)OCCO5)c(F)c2)CC1 [Example 32, N-(3-fluoro-4-((5-(2-hydroxyethoxy)-2,3-dihydro-[1,4]dioxino[2,3-f]quinolin-10-yl)oxy)phenyl)-N-(4-fluorophenyl)cyclopropan-1,1-dicarboxamide]	< 50 nM
CC1(O)CCN(CCCOc2cc3nccc(Oc4ccc(NC(=O)C5(C(=O)Nc6ccc(F)cc6)CC5)cc4F)c3c3c2OCCO3)CC1 [Example 22, N-(3-fluoro-4-((5-(3-(4-hydroxy-4-methylpiperidin-1-yl)propoxy)-2,3-dihydro-[1,4]dioxino[2,3-f]quinolin-10-yl)oxy)phenyl)-N-(4-fluorophenyl)cyclopropan-1,1-dicarboxamide]	< 50 nM
COc1cc2nccc(Oc3ccc(NC(=O)C4(C(=O)Nc5ccc(F)cc5)CC4)cc3F)c2c2c1OCCO2 [Example 2, N-(3-fluoro-4-((5-methoxy-2,3-dihydro-[1,4]dioxino[2,3-f]quinolin-10-yl)oxy)phenyl)-N-(4-fluorophenyl)cyclopropan-1,1-dicarboxamide]	< 50 nM
N#CCCCOc1cc2nccc(Oc3ccc(NC(=O)C4(C(=O)Nc5ccc(F)cc5)CC4)cc3F)c2c2c1OCCO2 [Example 26, N-(3-fluoro-4-((5-(3-cyanopropoxy)-2,3-dihydro-[1,4]dioxino[2,3-f]quinolin-10-yl)oxy)phenyl)-N-(4-fluorophenyl)cyclopropan-1,1-dicarboxamide]	< 50 nM
COCCCOc1cc2nccc(Oc3ccc(NC(=O)C4(C(=O)Nc5ccc(F)cc5)CC4)cc3F)c2c2c1OCCO2 [Example 14, N-(3-fluoro-4-((5-(3-methoxypropoxy)-2,3-dihydro-[1,4]dioxino[2,3-f]quinolin-10-yl)oxy)phenyl)-N-(4-fluorophenyl)cyclopropan-1,1-dicarboxamide]	< 50 nM
O=C(Nc1ccc(F)cc1)C1(C(=O)Nc2ccc(Oc3ccnc4cc(OCCCO)c5c(c34)OCCO5)c(F)c2)CC1 [Example 13, N-(3-fluoro-4-((5-(3-hydroxypropoxy)-2,3-dihydro-[1,4]dioxino[2,3-f]quinolin-10-yl)oxy)phenyl)-N-(4-fluorophenyl)cyclopropan-1,1-dicarboxamide]	< 50 nM
O=C(Nc1ccc(F)cc1)C1(C(=O)Nc2ccc(Oc3ccnc4cc(OCCCN5CCCC5)c5c(c34)OCCO5)c(F)c2)CC1 [Example 25, N-(3-fluoro-4-((5-(3-(pyrrolidin-1-yl)propoxy)-2,3-dihydro-[1,4]dioxino[2,3-f]quinolin-10-yl)oxy)phenyl)-N-(4-fluorophenyl)cyclopropan-1,1-dicarboxamide]	< 50 nM
O=C(Nc1ccc(F)cc1)C1(C(=O)Nc2ccc(Oc3ccnc4cc(OCCCN5CCCCC5)c5c(c34)OCCO5)c(F)c2)CC1 [Example 9, N-(4-((5-(3-(piperidin-1-yl)propoxy)-2,3-dihydro-[1,4]dioxino[2,3-f]quinolin-10-yl)oxy)-3-fluorophenyl)-N-(4-fluorophenyl)cyclopropan-1,1-dicarboxamide]	< 50 nM
NC1(COc2cc3nccc(Oc4ccc(NC(=O)C5(C(=O)Nc6ccc(F)cc6)CC5)cc4F)c3c3c2OCCO3)CC1 [Example 33, N-(4-((5-((1-aminocyclopropyl)methoxy)-2,3-dihydro-[1,4]dioxino[2,3-f]quinolin-10-yl)oxy)-3-fluorophenyl)-N-(4-fluorophenyl)cyclopropan-1,1-dicarboxamide]	< 50 nM
